Results reported in ChEMBL document CHEMBL4800724 (2021).
One block for each compound: values may come before it. The source made the active and inactive calls. The rule behind the calls is not given here.

Tests used:
[1] = target: T1, Sigma non-opioid intracellular receptor 1 (Homo sapiens, UniProt Q99720); assay: GPCRScan assay: inhibition of Sigma 1; set-up: radioligand conc. used [nm] 4.0 – 5.0, parental cells HEKT
[2] = target: Mitogen-activated protein kinase 14 (Homo sapiens, UniProt Q16539); assay: NanoBRET (SGC Frankfurt) (MAPK14)
[3] = target: Ubiquitin carboxyl-terminal hydrolase isozyme L1 (Homo sapiens) (UniProt P09936); assay: UCHL1 activity based protein profiling assay (ABPP)
[4] = target: 5-hydroxytryptamine receptor 1A (Homo sapiens) (UniProt P08908); conditions: Compound concentration 10.0 uM
[5] = target: 5-hydroxytryptamine receptor 1B (Homo sapiens) (UniProt P28222); conditions: Compound concentration 10.0 uM
[6] = target: 5-hydroxytryptamine receptor 1D (Homo sapiens) (UniProt P28221); conditions: Compound concentration 10.0 uM
[7] = target: 5-hydroxytryptamine receptor 1E (Homo sapiens) (UniProt P28566); conditions: Compound concentration 10.0 uM
[8] = target: 5-hydroxytryptamine receptor 2A (Homo sapiens) (UniProt P28223); conditions: Compound concentration 10.0 uM
[9] = target: 5-hydroxytryptamine receptor 2B (Homo sapiens) (UniProt P41595); conditions: Compound concentration 10.0 uM
[10] = target: 5-hydroxytryptamine receptor 2C (Homo sapiens) (UniProt P28335); conditions: Compound concentration 10.0 uM
[11] = target: 5-hydroxytryptamine receptor 3A (Homo sapiens) (UniProt P46098); conditions: Compound concentration 10.0 uM
[12] = target: 5-hydroxytryptamine receptor 5A (Homo sapiens) (UniProt P47898); conditions: Compound concentration 10.0 uM
[13] = target: 5-hydroxytryptamine receptor 6 (Homo sapiens) (UniProt P50406); conditions: Compound concentration 10.0 uM
[14] = target: 5-hydroxytryptamine receptor 7 (Homo sapiens) (UniProt P34969); conditions: Compound concentration 10.0 uM
[15] = target: D(2) dopamine receptor (Homo sapiens) (UniProt P14416); conditions: Compound concentration 10.0 uM
[16] = target: D(3) dopamine receptor (Homo sapiens) (UniProt P35462); conditions: Compound concentration 10.0 uM
[17] = target: D(4) dopamine receptor (Homo sapiens) (UniProt P21917); conditions: Compound concentration 10.0 uM
[18] = target: D(1B) dopamine receptor (Homo sapiens) (UniProt P21918); conditions: Compound concentration 10.0 uM
[19] = target: Sodium-dependent serotonin transporter (Homo sapiens) (UniProt P31645); conditions: Compound concentration 10.0 uM
[20] = target: Sodium-dependent noradrenaline transporter (Homo sapiens) (UniProt P23975); conditions: Compound concentration 10.0 uM
[21] = target: T2, Sodium-dependent dopamine transporter (Homo sapiens, UniProt Q01959); conditions: Compound concentration 10.0 uM
[22] = target: Mu-type opioid receptor (Homo sapiens) (UniProt P35372); conditions: Compound concentration 10.0 uM
[23] = target: Delta-type opioid receptor (Homo sapiens) (UniProt P41143); conditions: Compound concentration 10.0 uM
[24] = target: Kappa-type opioid receptor (Homo sapiens) (UniProt P41145); conditions: Compound concentration 10.0 uM
[25] = target: T3, GABA-A receptor; anion channel (Rattus norvegicus) (UniProt O09028+P15431+P18506+P18508+P19969+P20236+P23574+P23576+P28471+P28473+P30191+P62813+P63079+P63138+Q91ZM7+Q9ES14); conditions: Compound concentration 10.0 uM
[26] = target: Histamine H1 receptor (Homo sapiens) (UniProt P35367); conditions: Compound concentration 10.0 uM
[27] = target: Histamine H2 receptor (Homo sapiens) (UniProt P25021); conditions: Compound concentration 10.0 uM
[28] = target: Histamine H3 receptor (Homo sapiens) (UniProt Q9Y5N1); conditions: Compound concentration 10.0 uM
[29] = target: Histamine H4 receptor (Homo sapiens) (UniProt Q9H3N8); conditions: Compound concentration 10.0 uM
[30] = target: Alpha-1A adrenergic receptor (Homo sapiens) (UniProt P35348); conditions: Compound concentration 10.0 uM
[31] = target: Alpha-2B adrenergic receptor (Homo sapiens) (UniProt P18089); conditions: Compound concentration 10.0 uM
[32] = target: Alpha-2C adrenergic receptor (Homo sapiens) (UniProt P18825); conditions: Compound concentration 10.0 uM
[33] = target: Beta-1 adrenergic receptor (Homo sapiens) (UniProt P08588); conditions: Compound concentration 10.0 uM
[34] = target: Beta-2 adrenergic receptor (Homo sapiens) (UniProt P07550); conditions: Compound concentration 10.0 uM
[35] = target: Muscarinic acetylcholine receptor M1 (Homo sapiens) (UniProt P11229); conditions: Compound concentration 10.0 uM
[36] = target: Muscarinic acetylcholine receptor M2 (Homo sapiens) (UniProt P08172); conditions: Compound concentration 10.0 uM
[37] = target: Muscarinic acetylcholine receptor M3 (Homo sapiens) (UniProt P20309); conditions: Compound concentration 10.0 uM
[38] = target: Muscarinic acetylcholine receptor M4 (Homo sapiens) (UniProt P08173); conditions: Compound concentration 10.0 uM
[39] = target: Beta-3 adrenergic receptor (Homo sapiens) (UniProt P13945); conditions: Compound concentration 10.0 uM
[40] = target: T3, GABA-A receptor; anion channel (Rattus norvegicus); conditions: Compound concentration 10.0 uM; remark: listed apart in the source
Rattus norvegicus = species: Rattus norvegicus; conditions: Compound concentration 10.0 uM
[41] = target: Alpha-1D adrenergic receptor (Homo sapiens) (UniProt P25100); conditions: Compound concentration 10.0 uM
[42] = target: Sigma intracellular receptor 2 (Homo sapiens) (UniProt Q5BJF2); conditions: Compound concentration 10.0 uM
[43] = target: T1, Sigma non-opioid intracellular receptor 1; conditions: Compound concentration 10.0 uM
[44] = target: T2, Sodium-dependent dopamine transporter; assay: GPCRScan assay: inhibition of DAT; set-up: radioligand conc. used [nm] 3.6 – 16.0, parental cells stable HEK
[45] = target: Alpha-2A adrenergic receptor (Homo sapiens, UniProt P08913); assay: GPCRScan assay: inhibition of Alpha2A; set-up: radioligand conc. used [nm] 1.0 – 3.0, parental cells stable MDCK
[46] = target: Ubiquitin carboxyl-terminal hydrolase isozyme L1 (Homo sapiens, UniProt P09936); assay: UCHL1 inhibition assay with Ub-Rho-morpholine as substrate
[47] = target: D(1A) dopamine receptor (Homo sapiens) (UniProt P21728); conditions: Compound concentration 10.0 uM
[48] = target: Alpha-1B adrenergic receptor (Homo sapiens) (UniProt P35368); conditions: Compound concentration 10.0 uM
[49] = target: Alpha-2A adrenergic receptor (Homo sapiens) (UniProt P08913); conditions: Compound concentration 10.0 uM
[50] = target: Muscarinic acetylcholine receptor M5 (Homo sapiens) (UniProt P08912); conditions: Compound concentration 10.0 uM

T1 sequence (Q99720 whole entry): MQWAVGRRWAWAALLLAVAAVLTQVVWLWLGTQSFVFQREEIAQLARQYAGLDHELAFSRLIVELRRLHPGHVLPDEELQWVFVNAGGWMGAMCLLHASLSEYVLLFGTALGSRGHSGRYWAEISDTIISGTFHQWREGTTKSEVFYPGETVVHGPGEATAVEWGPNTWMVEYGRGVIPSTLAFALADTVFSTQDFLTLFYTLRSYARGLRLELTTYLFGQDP
T2 sequence (Q01959 whole entry): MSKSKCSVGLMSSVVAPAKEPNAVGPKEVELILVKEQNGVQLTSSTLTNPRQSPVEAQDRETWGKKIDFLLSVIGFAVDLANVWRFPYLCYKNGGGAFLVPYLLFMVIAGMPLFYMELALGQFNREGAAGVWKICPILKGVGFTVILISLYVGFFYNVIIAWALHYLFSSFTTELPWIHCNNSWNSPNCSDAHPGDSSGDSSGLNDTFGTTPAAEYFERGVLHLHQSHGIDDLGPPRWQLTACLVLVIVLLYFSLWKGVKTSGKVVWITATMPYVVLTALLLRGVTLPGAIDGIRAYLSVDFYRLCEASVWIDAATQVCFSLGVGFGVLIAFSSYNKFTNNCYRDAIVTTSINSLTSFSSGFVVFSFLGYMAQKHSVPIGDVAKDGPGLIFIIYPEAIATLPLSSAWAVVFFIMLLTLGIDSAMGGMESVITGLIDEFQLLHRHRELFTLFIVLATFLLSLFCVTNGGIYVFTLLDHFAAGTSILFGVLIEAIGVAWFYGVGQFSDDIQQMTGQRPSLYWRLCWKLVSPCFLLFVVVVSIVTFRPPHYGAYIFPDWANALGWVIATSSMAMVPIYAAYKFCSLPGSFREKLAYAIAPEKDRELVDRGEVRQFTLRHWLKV
Chain of 5-hydroxytryptamine receptor 1E (Homo sapiens) (P28566 whole entry): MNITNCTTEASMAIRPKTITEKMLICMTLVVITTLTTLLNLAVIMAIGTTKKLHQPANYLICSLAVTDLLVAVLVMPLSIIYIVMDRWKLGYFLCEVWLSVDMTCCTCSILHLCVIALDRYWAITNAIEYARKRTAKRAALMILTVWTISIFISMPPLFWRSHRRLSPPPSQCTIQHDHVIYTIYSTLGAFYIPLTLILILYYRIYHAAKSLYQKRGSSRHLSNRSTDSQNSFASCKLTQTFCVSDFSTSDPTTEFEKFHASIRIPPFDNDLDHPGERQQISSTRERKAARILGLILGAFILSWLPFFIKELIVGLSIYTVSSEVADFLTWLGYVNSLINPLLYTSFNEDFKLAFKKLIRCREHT
Chain of Alpha-2A adrenergic receptor (P08913 whole entry): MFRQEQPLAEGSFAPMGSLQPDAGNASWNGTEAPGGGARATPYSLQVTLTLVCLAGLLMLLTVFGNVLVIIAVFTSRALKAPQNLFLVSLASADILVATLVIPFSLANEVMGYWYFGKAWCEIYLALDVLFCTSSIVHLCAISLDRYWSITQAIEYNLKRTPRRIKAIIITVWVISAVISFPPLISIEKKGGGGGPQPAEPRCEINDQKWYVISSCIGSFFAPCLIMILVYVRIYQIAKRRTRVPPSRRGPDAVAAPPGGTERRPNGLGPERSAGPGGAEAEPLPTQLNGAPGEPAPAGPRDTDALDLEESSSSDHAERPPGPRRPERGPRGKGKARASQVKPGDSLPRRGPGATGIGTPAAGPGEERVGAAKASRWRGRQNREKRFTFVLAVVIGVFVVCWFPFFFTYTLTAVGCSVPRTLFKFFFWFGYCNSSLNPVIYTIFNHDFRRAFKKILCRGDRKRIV
Chain of Sodium-dependent noradrenaline transporter (Homo sapiens) (P23975 whole entry): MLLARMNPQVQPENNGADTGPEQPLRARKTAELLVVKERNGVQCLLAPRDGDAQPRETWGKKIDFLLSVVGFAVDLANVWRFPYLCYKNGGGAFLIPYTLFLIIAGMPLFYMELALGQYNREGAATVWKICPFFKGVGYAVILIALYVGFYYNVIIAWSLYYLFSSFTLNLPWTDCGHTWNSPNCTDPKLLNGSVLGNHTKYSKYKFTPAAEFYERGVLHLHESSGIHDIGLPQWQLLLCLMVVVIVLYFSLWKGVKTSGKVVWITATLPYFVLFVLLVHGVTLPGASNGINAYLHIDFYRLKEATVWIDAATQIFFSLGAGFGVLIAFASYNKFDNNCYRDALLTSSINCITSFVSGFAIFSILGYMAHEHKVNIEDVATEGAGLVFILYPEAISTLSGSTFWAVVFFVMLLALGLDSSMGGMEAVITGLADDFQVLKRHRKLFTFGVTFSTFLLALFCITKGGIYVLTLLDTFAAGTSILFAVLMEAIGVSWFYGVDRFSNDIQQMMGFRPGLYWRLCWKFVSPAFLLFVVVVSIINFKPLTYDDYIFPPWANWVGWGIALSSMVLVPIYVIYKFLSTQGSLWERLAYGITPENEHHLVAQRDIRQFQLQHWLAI
Chain of Beta-2 adrenergic receptor (Homo sapiens) (P07550 whole entry, looked up): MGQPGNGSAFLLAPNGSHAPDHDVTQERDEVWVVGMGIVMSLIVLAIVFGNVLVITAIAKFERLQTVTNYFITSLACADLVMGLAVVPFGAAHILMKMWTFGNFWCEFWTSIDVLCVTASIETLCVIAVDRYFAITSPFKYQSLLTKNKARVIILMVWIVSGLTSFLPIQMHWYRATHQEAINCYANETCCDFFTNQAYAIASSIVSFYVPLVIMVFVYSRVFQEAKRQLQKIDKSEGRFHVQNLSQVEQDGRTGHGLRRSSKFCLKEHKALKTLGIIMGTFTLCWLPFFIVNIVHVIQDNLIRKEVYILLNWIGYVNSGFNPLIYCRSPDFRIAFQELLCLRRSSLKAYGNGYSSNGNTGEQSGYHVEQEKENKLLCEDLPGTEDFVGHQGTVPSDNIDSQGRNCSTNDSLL
Chain of D(2) dopamine receptor (Homo sapiens) (P14416 whole entry): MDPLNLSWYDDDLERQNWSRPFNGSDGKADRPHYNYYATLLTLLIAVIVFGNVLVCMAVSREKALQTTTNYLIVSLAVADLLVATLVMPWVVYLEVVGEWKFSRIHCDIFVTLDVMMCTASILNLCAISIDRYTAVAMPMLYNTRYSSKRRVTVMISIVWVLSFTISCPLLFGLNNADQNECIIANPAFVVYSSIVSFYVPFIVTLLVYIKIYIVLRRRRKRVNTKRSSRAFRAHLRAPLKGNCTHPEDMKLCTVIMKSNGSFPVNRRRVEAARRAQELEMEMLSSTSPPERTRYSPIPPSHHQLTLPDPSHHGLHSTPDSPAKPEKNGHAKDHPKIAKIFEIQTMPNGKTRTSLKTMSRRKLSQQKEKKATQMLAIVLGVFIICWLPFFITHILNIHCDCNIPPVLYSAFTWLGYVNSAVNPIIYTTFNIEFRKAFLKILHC
Chain of Alpha-1D adrenergic receptor (Homo sapiens) (P25100 whole entry): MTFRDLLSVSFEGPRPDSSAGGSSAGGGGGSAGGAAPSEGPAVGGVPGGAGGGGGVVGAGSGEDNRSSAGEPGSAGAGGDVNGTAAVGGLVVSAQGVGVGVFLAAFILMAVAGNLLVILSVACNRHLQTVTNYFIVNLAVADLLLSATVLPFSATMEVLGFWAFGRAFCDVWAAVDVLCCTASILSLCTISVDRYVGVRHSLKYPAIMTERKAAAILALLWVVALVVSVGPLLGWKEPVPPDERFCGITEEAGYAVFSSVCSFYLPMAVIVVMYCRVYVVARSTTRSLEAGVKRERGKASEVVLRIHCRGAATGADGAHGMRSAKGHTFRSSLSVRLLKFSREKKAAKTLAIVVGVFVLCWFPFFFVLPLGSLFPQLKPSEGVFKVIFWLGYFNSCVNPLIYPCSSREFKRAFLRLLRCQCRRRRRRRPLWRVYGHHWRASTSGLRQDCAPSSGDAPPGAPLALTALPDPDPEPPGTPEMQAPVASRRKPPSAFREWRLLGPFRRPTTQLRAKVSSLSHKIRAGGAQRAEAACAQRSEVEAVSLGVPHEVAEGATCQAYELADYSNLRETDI
Chain of D(4) dopamine receptor (Homo sapiens) (P21917 whole entry): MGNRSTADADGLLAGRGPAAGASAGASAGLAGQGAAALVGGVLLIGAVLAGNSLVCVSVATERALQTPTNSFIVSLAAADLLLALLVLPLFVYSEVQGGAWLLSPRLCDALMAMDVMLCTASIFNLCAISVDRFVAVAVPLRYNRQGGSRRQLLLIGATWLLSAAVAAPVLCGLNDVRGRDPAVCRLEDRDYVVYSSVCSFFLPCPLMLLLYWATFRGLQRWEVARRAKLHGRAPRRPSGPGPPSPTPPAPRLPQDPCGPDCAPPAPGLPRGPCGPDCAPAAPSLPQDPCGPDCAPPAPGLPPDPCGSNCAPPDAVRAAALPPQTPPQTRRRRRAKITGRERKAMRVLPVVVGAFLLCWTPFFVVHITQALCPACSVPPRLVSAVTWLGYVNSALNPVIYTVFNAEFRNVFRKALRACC
Chain of 5-hydroxytryptamine receptor 5A (Homo sapiens) (P47898 whole entry): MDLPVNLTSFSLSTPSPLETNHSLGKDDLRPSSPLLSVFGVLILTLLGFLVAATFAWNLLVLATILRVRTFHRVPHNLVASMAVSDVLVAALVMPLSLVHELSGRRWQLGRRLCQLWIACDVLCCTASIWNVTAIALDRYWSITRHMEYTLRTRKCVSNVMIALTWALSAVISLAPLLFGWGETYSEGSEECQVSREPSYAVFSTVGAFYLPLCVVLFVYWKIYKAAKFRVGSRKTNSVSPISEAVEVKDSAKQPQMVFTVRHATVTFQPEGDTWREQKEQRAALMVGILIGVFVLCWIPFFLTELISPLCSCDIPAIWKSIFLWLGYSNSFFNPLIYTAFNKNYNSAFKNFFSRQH
Chain of 5-hydroxytryptamine receptor 3A (Homo sapiens) (P46098 whole entry): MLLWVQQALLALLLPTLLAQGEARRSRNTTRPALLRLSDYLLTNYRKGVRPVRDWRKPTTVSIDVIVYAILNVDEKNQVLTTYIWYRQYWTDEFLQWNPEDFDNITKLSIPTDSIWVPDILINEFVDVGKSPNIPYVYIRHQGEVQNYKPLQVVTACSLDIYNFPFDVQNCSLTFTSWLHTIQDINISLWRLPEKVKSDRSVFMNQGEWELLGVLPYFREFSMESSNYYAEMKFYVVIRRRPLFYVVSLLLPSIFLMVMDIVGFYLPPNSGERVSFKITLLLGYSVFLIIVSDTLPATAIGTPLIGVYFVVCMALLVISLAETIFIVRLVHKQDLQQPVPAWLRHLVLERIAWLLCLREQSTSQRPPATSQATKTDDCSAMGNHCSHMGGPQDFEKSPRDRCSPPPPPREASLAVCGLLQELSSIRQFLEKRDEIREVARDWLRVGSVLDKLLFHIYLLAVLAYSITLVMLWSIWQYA

- Ki ([1]; read-out: Ki): 3.43 µM
- Ki ([1]; read-out: pKi (converted)): 3.39 µM
- IC50 [2]: 0.32 µM (active)
- Full inhibition [3]: 3 µM
- inhibition [4]: 7.61%
- inhibition [5]: 1.57%
- inhibition [6]: -0.37%
- inhibition [7]: 2.35%
- inhibition [8]: 30%
- inhibition [9]: 5.22%
- inhibition [10]: 18.2%
- inhibition [11]: 2.31%
- inhibition [12]: 11.8%
- inhibition [13]: 9.94%
- inhibition [14]: -0.16%
- inhibition [15]: 0.55%
- inhibition [16]: -2.14%
- inhibition [17]: 4.26%
- inhibition [18]: 7.55%
- inhibition [19]: 2.49%
- inhibition [20]: 2.61%
- inhibition [21]: -2.33%
- inhibition [22]: 12.6%
- inhibition [23]: 8.43%
- inhibition [24]: 0.19%
- inhibition [25]: -1.06%
- inhibition [26]: 7.45%
- inhibition [27]: 0.58%
- inhibition [28]: -5.98%
- inhibition [29]: 5.77%
- inhibition [30]: 11.2%
- inhibition [31]: -1.02%
- inhibition [32]: 14.7%
- inhibition [33]: -7.19%
- inhibition [34]: -0.7%
- inhibition [35]: 7.58%
- inhibition [36]: -0.45%
- inhibition [37]: -1.04%
- inhibition [38]: 4.84%
- inhibition [39]: -3.31%
- inhibition [40]: -2.35%
- inhibition (Rattus norvegicus): 21.9%
- inhibition [41]: 12.2%
- inhibition [42]: -1.19%
- inhibition [43]: 69%
SMILES: N#CN1CC[C@H](C(=O)Nc2nc3c(s2)CN(C(=O)CN=[N+]=[N-])CC3)C1 [8RK64]

- Ki [44]: > 10 µM
- pKi [44]: < 5
- Ki [45]: > 10 µM
- pKi [45]: < 5
- IC50 [46]: 12.9 µM (not active)
- inhibition [4]: 12.1%
- inhibition [5]: 6.13%
- inhibition [6]: 20.9%
- inhibition [7]: 6.5%
- inhibition [8]: 3.66%
- inhibition [9]: 5.55%
- inhibition [10]: 6.22%
- inhibition [11]: 0.95%
- inhibition [12]: 9.64%
- inhibition [13]: 8.14%
- inhibition [14]: -1.05%
- inhibition [47]: 8.27%
- inhibition [15]: 4.82%
- inhibition [17]: 5.53%
- inhibition [19]: 7.66%
- inhibition [20]: 3.51%
- inhibition [21]: 83%
- inhibition [22]: 18.7%
- inhibition [23]: 4.07%
- inhibition [24]: 13.3%
- inhibition [25]: 34.2%
- inhibition [26]: 0.43%
- inhibition [27]: 3.43%
- inhibition [28]: -2.11%
- inhibition [30]: 3.73%
- inhibition [48]: -7.5%
- inhibition [49]: 50.7%
- inhibition [31]: 6.46%
- inhibition [32]: 4.21%
- inhibition [33]: 3.17%
- inhibition [34]: -8.12%
- inhibition [35]: 24.4%
- inhibition [37]: -2.15%
- inhibition [38]: -1.43%
- inhibition [50]: 2.94%
- inhibition [40]: 28.7%
- inhibition (Rattus norvegicus): 5.64%
- inhibition [41]: 0.34%
- inhibition [43]: 6.56%
SMILES: N#CN1CC[C@@H](C(=O)Nc2nc3c(s2)CN(C(=O)CN=[N+]=[N-])CC3)C1 [JYQ88]
